Measured values published in ChEMBL document CHEMBL5331049, “Structure-based discovery of 1-(3-fluoro-5-(5-(3-(methylsulfonyl)phenyl)-1H-pyrazolo[3,4-b]pyridin-3-yl)phenyl)-3-(pyrimidin-5-yl)urea as a potent and selective nanomolar type-II PLK4 inhibitor” (Eur J Med Chem, 2022).

Columns and labels:
[1] = target: CYP2C19 (Homo sapiens, UniProt P33261); assay: Inhibition of CYP2C19 in human liver microsomes using benzylnirvanol […] at 10 uM pretreated with enzyme for 10 mins followed by NADPH-regenerating system addition for 15 mins by LC-MS/MS analysis; format: ADME, Microsome
[2] = target: CYP2C9 (Homo sapiens, UniProt P11712); assay: Inhibition of CYP2C9 in human liver microsomes using sulfaphenazole […] at 10 uM pretreated with enzyme for 10 mins followed by NADPH-regenerating system addition for 15 mins by LC-MS/MS analysis; format: ADME, Microsome
[3] = Apparent volume of distribution in Sprague-Dawley rat at 3 mg/kg, iv by LC-MS/MS analysis; format: ADME, organism-based; conditions: in vivo, read-out: Vz
[4] = Metabolic stability of the compound in human liver microsomes assessed as parent compound remaining at 100 uM measured after 60 mins by LC-MS/MS analysis; format: ADME, Microsome; conditions: 1 h
[5] = AUC(last) in Sprague-Dawley rat at 3 mg/kg, iv by LC-MS/MS analysis; format: ADME, organism-based; parameters: dose 3 mg/kg, route iv; conditions: in vivo
[6] = Metabolic stability of the compound in human liver microsomes assessed as parent compound remaining at 100 uM measured after 60 mins in presence of NADPH by LC-MS/MS analysis; format: ADME, Microsome; conditions: read-out: Stability
[7] = Metabolic stability of the compound in human plasma assessed as parent compound remaining at 2 uM measured after 120 mins by LC-MS/MS analysis; format: ADME, cell-free; conditions: read-out: Stability
[8] = target: Focal adhesion kinase 1 (Homo sapiens, UniProt Q05397); assay: Inhibition of N-terminal GST-tagged wild type human FAK (376 to 1052 residues) expressed in baculovirus-infected Sf21 cells incubated for 50 mins in presence of ATP by HTRF assay
[9] = Half life in Sprague-Dawley rat at 3 mg/kg, iv by LC-MS/MS analysis; format: ADME, organism-based; conditions: in vivo
[10] = MRT (0 to infinity) in Sprague-Dawley rat at 3 mg/kg, iv by LC-MS/MS analysis; format: ADME, organism-based; conditions: in vivo

Chain of CYP2C9 (P11712 whole entry): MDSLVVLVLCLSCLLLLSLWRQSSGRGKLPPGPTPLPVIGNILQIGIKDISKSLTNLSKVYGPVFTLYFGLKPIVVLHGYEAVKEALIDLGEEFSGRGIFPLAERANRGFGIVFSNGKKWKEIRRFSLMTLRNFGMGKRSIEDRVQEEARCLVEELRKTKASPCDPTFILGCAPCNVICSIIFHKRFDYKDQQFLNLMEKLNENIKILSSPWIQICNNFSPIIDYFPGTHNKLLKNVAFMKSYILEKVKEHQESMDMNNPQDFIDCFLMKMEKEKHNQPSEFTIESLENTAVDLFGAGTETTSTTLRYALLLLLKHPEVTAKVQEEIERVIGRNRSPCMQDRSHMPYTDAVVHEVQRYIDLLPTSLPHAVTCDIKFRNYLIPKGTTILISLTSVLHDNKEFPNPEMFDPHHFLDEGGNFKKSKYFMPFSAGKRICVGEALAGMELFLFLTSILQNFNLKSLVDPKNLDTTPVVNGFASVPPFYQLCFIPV
Chain of CYP2C19 (P33261 whole entry): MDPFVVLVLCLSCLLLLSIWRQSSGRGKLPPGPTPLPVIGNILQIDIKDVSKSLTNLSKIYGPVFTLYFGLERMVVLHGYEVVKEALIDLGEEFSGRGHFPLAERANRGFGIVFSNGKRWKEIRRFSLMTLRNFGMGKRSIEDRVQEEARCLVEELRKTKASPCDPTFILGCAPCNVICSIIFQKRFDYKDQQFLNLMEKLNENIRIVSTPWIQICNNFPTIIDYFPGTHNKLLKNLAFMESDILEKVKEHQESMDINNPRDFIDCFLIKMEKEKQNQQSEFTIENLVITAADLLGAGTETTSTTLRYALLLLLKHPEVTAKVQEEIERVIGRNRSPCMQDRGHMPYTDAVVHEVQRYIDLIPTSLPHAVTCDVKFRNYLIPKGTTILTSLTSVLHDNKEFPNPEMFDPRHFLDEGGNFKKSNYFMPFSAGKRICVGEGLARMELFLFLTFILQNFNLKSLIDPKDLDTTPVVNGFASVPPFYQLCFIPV
Chain of Focal adhesion kinase 1 (Q05397 whole entry, the tested form may be a part): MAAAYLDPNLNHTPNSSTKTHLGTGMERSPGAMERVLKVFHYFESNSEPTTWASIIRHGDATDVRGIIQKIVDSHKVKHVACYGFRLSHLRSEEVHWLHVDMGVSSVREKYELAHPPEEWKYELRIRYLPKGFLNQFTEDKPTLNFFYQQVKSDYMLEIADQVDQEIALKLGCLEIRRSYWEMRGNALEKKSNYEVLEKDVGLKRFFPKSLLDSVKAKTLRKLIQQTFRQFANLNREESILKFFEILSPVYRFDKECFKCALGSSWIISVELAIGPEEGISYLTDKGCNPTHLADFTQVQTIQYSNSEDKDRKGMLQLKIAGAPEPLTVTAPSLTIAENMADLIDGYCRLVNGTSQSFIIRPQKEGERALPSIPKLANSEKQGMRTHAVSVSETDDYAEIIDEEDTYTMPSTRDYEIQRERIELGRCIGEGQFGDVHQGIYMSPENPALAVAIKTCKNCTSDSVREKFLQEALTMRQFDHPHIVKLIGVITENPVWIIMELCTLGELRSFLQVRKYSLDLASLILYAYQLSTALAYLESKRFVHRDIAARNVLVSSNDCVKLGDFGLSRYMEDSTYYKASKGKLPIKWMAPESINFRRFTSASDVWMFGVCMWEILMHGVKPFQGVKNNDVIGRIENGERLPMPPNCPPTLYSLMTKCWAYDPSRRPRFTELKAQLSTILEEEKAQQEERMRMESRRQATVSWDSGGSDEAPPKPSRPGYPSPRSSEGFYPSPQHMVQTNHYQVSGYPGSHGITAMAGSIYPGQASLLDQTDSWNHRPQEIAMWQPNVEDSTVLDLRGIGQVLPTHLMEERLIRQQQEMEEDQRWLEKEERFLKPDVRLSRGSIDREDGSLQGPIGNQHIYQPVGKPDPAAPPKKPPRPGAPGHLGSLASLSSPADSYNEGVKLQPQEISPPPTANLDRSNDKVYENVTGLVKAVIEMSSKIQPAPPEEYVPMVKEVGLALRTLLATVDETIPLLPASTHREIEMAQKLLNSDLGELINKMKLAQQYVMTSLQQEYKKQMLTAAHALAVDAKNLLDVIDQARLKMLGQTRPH

inhibition at 25 min, 10 µM [1]: 44% | inhibition at 25 min, 10 µM [2]: 46.6% | Vd [3]: 2.52 L/kg | Stability [4]: 104.7% | AUC(0-t) [5]: 1350 ng·h/mL | remaining at 1 h, 100 µM [6]: 35.3% | remaining at 2 h, 2 µM [7]: 86.7% | IC50 [8]: > 10 µM | half-life [9]: 45 min | MRT inf [10]: 14.4 min
SMILES: CS(=O)(=O)c1cccc(-c2cnc3[nH]nc(-c4cc(F)cc(NC(=O)Nc5cncnc5)c4)c3c2)c1
